Assay results published in patent publication EP0170611A1, “Process for protecting keratinic material against deterioration by keratin devouring insects” (priority 1984, dated 1986).

Experiments:
[1] = test system: Larven des Pelzkäfers (Attagenus piceus Oliv.); assay: Fastness test against fur beetle larvae (SNV 195901) on wool treated by pad (Foulard) application, Example 5; assay type: in vivo; details: 15 larvae, 14 days, 28°C, 65 % r.h.
Source text: (§1) Die mit den zu prüfenden Verbindungen ausgerüsteten trockenen Wollmuster werden der Mottenechtheitsprüfung (Frassschutz gegen die Kleidermotte Tineola bisselliella Hum.) sowie der Echtheitsprüfung gegen Larven des Pelzkäfers (Attagenus piceus Oliv.) und Teppichkäfers (Anthrenus flavipes var. seminiveus) gemäss der Vorschrift des Schweizer Normenverbandes SNV 195901 unterworfen.
(§2) Es werden jeweils Larven von Tineola und Larven von Anthrenus und 6 bis 7 Wochen alte Larven von Attagenus zur Prüfung verwendet.
(§3) Aus dem behandelten Wollflanellmuster werden Stücke gleicher Grösse ausgeschnitten und 14 Tage lang bei konstanter Temperatur (28°C) und konstanter relativer Luftfeuchtigkeit (65 %) dem Angriff (Frass) von je 15 Larven des entsprechenden Schädlings ausgesetzt. Die Beurteilung für alle 3 Schädlinge erfolgt nach dem Gewichtsverlust des Wollmusters.
(§4) 12,5 ml der jeweiligen, die zu prüfenden Verbindungen Nr. 101, 102, 201, 203, 205, 301 und 302 enthaltenden Stammlösung gemäss Beispiel 4 werden mit Aethylenglykolmonoäthyläther, der 1 g/1 eines Netz- und Dispergiermittels enthält, verdünnt. Die'Verdünnung erfolgt in der Weise, dass in der erhaltenen Foulardflotte die Konzentration der jeweils zu prüfenden Verbindung so eingestellt ist, dass auf dem Wollgewebe nach dem foulardieren x ppm des jeweiligen Wirkstoffes vorhanden sind (siehe Tabelle 2). Jeweils 3 ml der erhaltenen Lösung werden in eine Kristallisierschale gegeben. Darin wird eine geköderte Rondelle aus Wollgewebe mit Hilfe einer Pinzette ca. 3 Sekunden lang benetzt. Die feuchten Rondellen werden dann zwischen 2 Aluminiumfolien foulardiert, und zwar derart, dass die abgequetschten Rondellen je 100 X, bezogen auf ihr Gewicht, an Flotte aufgenommen haben. Die feuchten Rondellen werden an der Luft getrocknet und den gleichen biologischen Prüfungen unterworfen, die in Beispiel 4 beschrieben sind. Die Ergebnisse sind in der nachfolgenden Tabelle 2 zusammengefassst: […]

[2] = test system: Larven des Teppichkäfers (Anthrenus flavipes var. seminiveus); assay: Fastness test against carpet beetle larvae (SNV 195901) on wool treated in the exhaust bath, Example 4; assay type: in vivo; details: 15 larvae, 14 days, 28°C, 65 % r.h.
Procedure: (§5) Von den zu prüfenden Verbindungen Nr. 101, 102, 201, 203, 205, 301 und 302 werden Stammlösungen durch Auflösung von jeweils 50 mg der Wirksubstanz in 25 ml Aethylenglykolmonoäthyläther bereitet.
(§6) 3 g schwere, gut vorgenetzte Wollgewebstücke werden in eine 30°C warme wässrige Flotte eingebracht, die folgende Bestandteile enthält: • x ppm, bezogen auf das Wollgewicht, der jeweils zu prüfenden Verbindung (eine entsprechende Menge der oben beschriebenen Stammlösung wird der Flotte zugegeben). • 1 X, bezogen auf das Wollgewicht, 80%-ige Essigsäure. • 4 X, bezogen auf das Wollgewicht, Ammoniumsulfat. • 0,5 g/1 Flotte eines Netz- und Dispergiermittels.
(§7) Die Temperatur der Flotte wird innerhalb 20 Minuten auf 98°C gesteigert und 60 Minuten bei dieser Temperatur belassen. Nach dem Abkühlen werden die Muster einzeln mit Wasser gespült und bei Raumtemperatur getrocknet.
as §1, §2, §3
(§8) .Aus der nachfolgenden Tabelle 1 ist für die geprüften Verbindungen die jeweilige Einsatzkonzentration (in ppm, bezogen auf das Wollgewicht) und der durch den Schädlingsfrass verursachte Gewichtsverlust (in mg) zu entnehmen: […]

[3] = test system: Kleidermotte Tineola bisselliella Hum.; assay: Moth-proofing test (SNV 195901) on wool treated by pad (Foulard) application, Example 5; assay type: in vivo; details: 15 larvae, 14 days, 28°C, 65 % r.h.
Source text: as §1, §2, §3, §4

[4] = test system: Kleidermotte Tineola bisselliella Hum.; assay: Moth-proofing test (feeding protection, SNV 195901) on wool treated in the exhaust bath, Example 4; assay type: in vivo; details: 15 larvae, 14 days, 28°C, 65 % r.h.
Procedure: as §5, §6, §7, §1, §2, §3, §8

[5] = test system: Larven des Pelzkäfers (Attagenus piceus Oliv.); assay: Fastness test against fur beetle larvae (SNV 195901) on wool treated in the exhaust bath, Example 4; assay type: in vivo; details: 15 larvae, 14 days, 28°C, 65 % r.h.
Procedure: as §5, §6, §7, §1, §2, §3, §8

[6] = test system: Larven des Teppichkäfers (Anthrenus flavipes var. seminiveus); assay: Fastness test against carpet beetle larvae (SNV 195901) on wool treated by pad (Foulard) application, Example 5; assay type: in vivo; details: 15 larvae, 14 days, 28°C, 65 % r.h.
Source text: as §1, §2, §3, §4

[7] = test system: die in Beispiel 4 genannten keratinfressenden Schädlinge; assay: Protection of wool articles treated in a dry-cleaning liquor, Example 6; assay type: in vivo, Tineola bisselliella, Attagenus piceus, Anthrenus flavipes; details: 10%-ige solution diluted 1:200 by volume in dry-cleaning solvent; wool spun to ca. 100 % solvent content, dried
Source text: Beispiel 6: Es wird jeweils eine 10%-ige Lösung der Verbindungen Nr. 101, 201, 202 und 301 in Aethylenglykolmonomethyläther hergestellt. Ein Volumenteil dieser Lösung wird mit 200 Volumen- 'teilen eines zur Trockenreinigung geeigneten Lösungsmittels, z.B. einer passenden Benzinfraktion oder Perchloräthylen, verdünnt. Gewünschtenfalls können noch reinigungsfördernde Zusätze beigefügt werden. Wollartikel werden nun wie üblich in diesen Reinigungsflüssigkeiten behandelt und anschliessend auf einen Lösungsmittelgehalt von ca. 100 % des Wollgewichtes abgeschleudert.

[8] = test system: die in Beispiel 4 genannten keratinfressenden Schädlinge; assay: Protection of wool articles treated by spray application, Example 7; assay type: in vivo, Tineola bisselliella, Attagenus piceus, Anthrenus flavipes; details: 0,5%-ige solution sprayed, 2 x 15 g/m^2; about 400 ppm active on the material
Source text: Beispiel 7: Es wird jeweils eine 0,5%-ige Lösung der Verbindungen Nr. 101, 201, 202 und 301 in Methylenchlorid, Trichloräthylen oder einer tiefsiedenden Benzinfraktion angesetzt. Wollartikel werden mit Hilfe einer üblichen Sprüheinrichtung mit diesen Lösungen besprüht, so dass 2 x 15 g/m^2 an Wirkstofflösung appliziert werden. Bei einem Ausnützungseffekt des Aerosols von 30 % befinden sich dann etwa 400 ppm der jeweiligen Wirkstoffverbindung auf dem Material.

[9] = Einsatzkonzentration 30 ppm on wool
[10] = Einsatzkonzentration 300 ppm on wool weight
[11] = Einsatzkonzentration 30 ppm on wool weight
[12] = Einsatzkonzentration 250 ppm on wool
[13] = Einsatzkonzentration 15 ppm on wool
[14] = Einsatzkonzentration 125 ppm on wool weight
[15] = Einsatzkonzentration 7,5 ppm on wool
[16] = Einsatzkonzentration 7,5 ppm on wool weight
[17] = Einsatzkonzentration 125 ppm on wool

## CC#CC(OC(=O)[C@H]1[C@H](C=C(Cl)Cl)C1(C)C)c1cccc(Oc2ccccc2)c1 (relative stereo) [Verbindung 102, (+)-trans-2,2-Dimethyl-3-(2,2-dichlorvinyl)-cyclopropancarbonsäure-3-phenoxy-a-propin-l-yl-benzylester]
[1]; [9]
  Gewichtsverlust: 15,3 mg
[2]; [10]
  Gewichtsverlust: 51,7 mg
[3]; [9]
  Gewichtsverlust: 4,4 mg
[4]; [11]
  Gewichtsverlust: 2,6 mg
[5]; [11]
  Gewichtsverlust: 43,4 mg
[6]; [12]
  Gewichtsverlust: 27,1 mg

## CC1(C)C(C=C(Cl)Cl)C1C(=O)OCc1cccc(Oc2ccccc2)c1 (mixture of isomers) [Verbindung 205, (+)-cis, trans-2,2-Dimethyl-3-(2,2-dichlorvinyl)-cyclopropancarbonsäure-3-phenoxybenzylester]
[1]; [13]
  Gewichtsverlust: 32,5 mg
[2]; [14]
  Gewichtsverlust: 29,2 mg
[3]; [15]
  Gewichtsverlust: 5,5 mg
[4]; [16]
  Gewichtsverlust: 5,8 mg
[5]; [11]
  Gewichtsverlust: 14,9 mg
[6]; [17]
  Gewichtsverlust: 11,0 mg

## CC1(C)C(C=C(Cl)Cl)C1C(=O)OC(C#N)c1ccc(F)c(Oc2ccccc2)c1 (mixture of isomers) [Verbindung 301, (±)-cis-2,2-Dimethyl-3-(2,2-dichlorvinyl)-cyclopropancarbonsäure-3-phenoxy-4-fluor-a-cyanobenzylester]
[1]; [15]
  Gewichtsverlust: 0,8 mg
[2]; [14]
  Gewichtsverlust: 14,9 mg
[7]
  Schutz gegen keratinfressende Schädlinge: hervorragend gegen die in Beispiel 4 genannten keratinfressenden Schädlinge geschützt
[4]; [16]
  Gewichtsverlust: 0 mg
[8]
  Schutz gegen keratinfressende Schädlinge: gegen die in Beispiel 4 genannten keratinfressenden Schädlinge geschützt
[5]; [16]
  Gewichtsverlust: 11,4 mg
[6]; [17]
  Gewichtsverlust: 0,1 mg

## CC1(C)[C@@H](C=C(Cl)Cl)[C@@H]1C(=O)OC(C#N)c1ccc(F)c(Oc2ccccc2)c1 (relative stereo) [Verbindung 302, (+)-trans-2,2-Dimethyl-3-(2,2-dichlorvinyl)-cyclopropancarbonsäure-3-phenoxy-4-fluor-a-cyanobenzylester]
[1]; [15]
  Gewichtsverlust: 9,3 mg
[2]; [14]
  Gewichtsverlust: 48,0 mg
[4]; [16]
  Gewichtsverlust: 0,4 mg
[5]; [16]
  Gewichtsverlust: 51,4 mg
[6]; [17]
  Gewichtsverlust: 16,3 mg

## CC#CC(OC(=O)C1C(C=C(Cl)Cl)C1(C)C)c1cccc(Oc2ccccc2)c1 (mixture of isomers) [Verbindung 101, (±)-cis-2,2-Dimethyl-3-(2,2-dichlorvinyl)-cyclopropancarbonsäure-3-phenoxy-α-propin-1-yl-benzylester]
[1]; [9]
  Gewichtsverlust: 2,0 mg
[2]; [10]
  Gewichtsverlust: 9,2 mg
[3]; [9]
  Gewichtsverlust: 1,0 mg
[7]
  Schutz gegen keratinfressende Schädlinge: hervorragend gegen die in Beispiel 4 genannten keratinfressenden Schädlinge geschützt
[4]; [11]
  Gewichtsverlust: 1,2 mg
[8]
  Schutz gegen keratinfressende Schädlinge: gegen die in Beispiel 4 genannten keratinfressenden Schädlinge geschützt
[5]; [11]
  Gewichtsverlust: 9,0 mg
[6]; [12]
  Gewichtsverlust: 1,1 mg

## CC1(C)[C@@H](C=C(Cl)Cl)[C@@H]1C(=O)OCc1cccc(Oc2ccccc2)c1 (relative stereo) [Verbindung 203, (+)-trans-2,2-Dimethyl-3-(2,2-dichlorvinyl)-cyclopropancarbonsäure-3-phenoxybenzylester]
[1]; [13]
  Gewichtsverlust: 39,3 mg
[2]; [14]
  Gewichtsverlust: 68,3 mg
[3]; [15]
  Gewichtsverlust: 17,4 mg
[4]; [16]
  Gewichtsverlust: 26,9 mg
[5]; [11]
  Gewichtsverlust: 54,2 mg
[6]; [17]
  Gewichtsverlust: 28,1 mg

## CC1(C)C(C=C(Cl)Cl)C1C(=O)OC(C#N)c1cccc(Oc2ccccc2)c1 (mixture of isomers) [Verbindung 202, (±)-cis-2,2-Dimethyl-3-(2,2-dichlorvinyl)-cyclopropancarbonsäure-3-phenoxy-a-cyano-benzylester]
[7]
  Schutz gegen keratinfressende Schädlinge: hervorragend gegen die in Beispiel 4 genannten keratinfressenden Schädlinge geschützt
[8]
  Schutz gegen keratinfressende Schädlinge: gegen die in Beispiel 4 genannten keratinfressenden Schädlinge geschützt

## CC1(C)C(C=C(Cl)Cl)C1C(=O)OCc1cccc(Oc2ccccc2)c1 (racemic) [Verbindung 201, (+)-cis-2,2-Dimethyl-3-(2,2-dichlorvinyl)-cyclopropancarbonsäure-3-phenoxybenzylester]
[1]; [13]
  Gewichtsverlust: 3,7 mg
[2]; [14]
  Gewichtsverlust: 18,9 mg
[3]; [15]
  Gewichtsverlust: 1,9 mg
[7]
  Schutz gegen keratinfressende Schädlinge: hervorragend gegen die in Beispiel 4 genannten keratinfressenden Schädlinge geschützt
[4]; [16]
  Gewichtsverlust: 1,7 mg
[8]
  Schutz gegen keratinfressende Schädlinge: gegen die in Beispiel 4 genannten keratinfressenden Schädlinge geschützt
[5]; [11]
  Gewichtsverlust: 4,3 mg
[6]; [17]
  Gewichtsverlust: 1,2 mg
